Measured values from the NIST ThermoML archive (doi:10.1016/j.tca.2015.06.017).

Test: xn = mol fraction of the nth substance listed
Settings: Liquid, Vibrating tube method

CCC(C)Cl (stereo not drawn) [2-chlorobutane] + CCCCCCC
mass density [kg/m3]
Settings | 283.15 K | 293.15 K | 298.15 K
100 kPa, x2 = 0.0524 | 870.08 | 859.09 | 853.5
100 kPa, x2 = 0.1018 | 857.33 | 846.5 | 841
100 kPa, x2 = 0.1968 | 834.23 | 823.7 | 818.39
100 kPa, x2 = 0.3006 | 810.89 | 800.7 | 795.55
100 kPa, x2 = 0.4029 | 789.62 | 779.7 | 774.75
100 kPa, x2 = 0.5017 | 770.58 | 760.98 | 756.09
100 kPa, x2 = 0.6008 | 752.78 | 743.44 | 738.72
100 kPa, x2 = 0.7023 | 735.82 | 726.75 | 722.14
100 kPa, x2 = 0.7977 | 720.94 | 712.09 | 707.68
100 kPa, x2 = 0.8986 | 706.28 | 697.66 | 693.37
100 kPa, x2 = 0.952 | 698.95 | 690.45 | 686.19
2000 kPa, x2 = 0.0524 | 872.12 | 861.28 | 855.76
2000 kPa, x2 = 0.1018 | 859.33 | 848.65 | 843.26
2000 kPa, x2 = 0.1968 | 836.28 | 825.79 | 820.66
2000 kPa, x2 = 0.3006 | 812.93 | 802.72 | 797.76
2000 kPa, x2 = 0.4029 | 791.64 | 781.78 | 776.96
2000 kPa, x2 = 0.5017 | 772.59 | 763.02 | 758.28
2000 kPa, x2 = 0.6008 | 754.76 | 745.47 | 740.85
2000 kPa, x2 = 0.7023 | 737.76 | 728.77 | 724.29
2000 kPa, x2 = 0.7977 | 722.86 | 714.07 | 709.77
2000 kPa, x2 = 0.8986 | 708.14 | 699.64 | 695.44
2000 kPa, x2 = 0.952 | 700.89 | 692.42 | 688.29
5000 kPa, x2 = 0.0524 | 875.14 | 864.55 | 859.07
5000 kPa, x2 = 0.1018 | 862.34 | 851.88 | 846.59
5000 kPa, x2 = 0.1968 | 839.19 | 828.97 | 823.96
5000 kPa, x2 = 0.3006 | 815.75 | 805.92 | 800.99
5000 kPa, x2 = 0.4029 | 794.46 | 784.93 | 780.1
5000 kPa, x2 = 0.5017 | 775.35 | 766.08 | 761.4
5000 kPa, x2 = 0.6008 | 757.49 | 748.48 | 743.93
5000 kPa, x2 = 0.7023 | 740.41 | 731.73 | 727.26
5000 kPa, x2 = 0.7977 | 725.51 | 716.99 | 712.67
5000 kPa, x2 = 0.8986 | 710.74 | 702.52 | 698.28
5000 kPa, x2 = 0.952 | 703.44 | 695.28 | 691.09
7000 kPa, x2 = 0.0524 | 877.15 | 866.63 | 861.28
7000 kPa, x2 = 0.1018 | 864.31 | 853.99 | 848.7
7000 kPa, x2 = 0.1968 | 841.13 | 831.06 | 826.06
7000 kPa, x2 = 0.3006 | 817.66 | 807.98 | 803.03
7000 kPa, x2 = 0.4029 | 796.31 | 786.88 | 782.16
7000 kPa, x2 = 0.5017 | 777.21 | 768.04 | 763.43
7000 kPa, x2 = 0.6008 | 759.32 | 750.4 | 745.91
7000 kPa, x2 = 0.7023 | 742.22 | 733.58 | 729.24
7000 kPa, x2 = 0.7977 | 727.32 | 718.82 | 714.61
7000 kPa, x2 = 0.8986 | 712.5 | 704.3 | 700.19
7000 kPa, x2 = 0.952 | 705.2 | 697.05 | 692.99
10000 kPa, x2 = 0.0524 | 880.01 | 869.74 | 864.5
10000 kPa, x2 = 0.1018 | 867.16 | 857.1 | 851.96
10000 kPa, x2 = 0.1968 | 844.01 | 834.15 | 829.21
10000 kPa, x2 = 0.3006 | 820.49 | 810.94 | 806.14
10000 kPa, x2 = 0.4029 | 799.08 | 789.81 | 785.11
10000 kPa, x2 = 0.5017 | 779.9 | 770.91 | 766.31
10000 kPa, x2 = 0.6008 | 761.96 | 753.22 | 748.74
10000 kPa, x2 = 0.7023 | 744.79 | 736.37 | 731.99
10000 kPa, x2 = 0.7977 | 729.85 | 721.59 | 717.31
10000 kPa, x2 = 0.8986 | 714.98 | 707.02 | 702.79
10000 kPa, x2 = 0.952 | 707.64 | 699.74 | 695.56
20000 kPa, x2 = 0.0524 | 889.1 | 879.38 | 874.44
20000 kPa, x2 = 0.1018 | 876.16 | 866.54 | 861.8
20000 kPa, x2 = 0.1968 | 852.83 | 843.5 | 838.93
20000 kPa, x2 = 0.3006 | 829.21 | 820.12 | 815.63
20000 kPa, x2 = 0.4029 | 807.66 | 798.87 | 794.49
20000 kPa, x2 = 0.5017 | 788.35 | 779.78 | 775.52
20000 kPa, x2 = 0.6008 | 770.29 | 761.93 | 757.79
20000 kPa, x2 = 0.7023 | 753.01 | 744.92 | 740.82
20000 kPa, x2 = 0.7977 | 737.95 | 730 | 726.04
20000 kPa, x2 = 0.8986 | 722.98 | 715.31 | 711.31
20000 kPa, x2 = 0.952 | 715.57 | 707.96 | 704.04
30000 kPa, x2 = 0.0524 | 897.39 | 888.05 | 883.44
30000 kPa, x2 = 0.1018 | 884.45 | 875.23 | 870.7
30000 kPa, x2 = 0.1968 | 860.93 | 852.05 | 847.61
30000 kPa, x2 = 0.3006 | 837.18 | 828.48 | 824.28
30000 kPa, x2 = 0.4029 | 815.5 | 807.16 | 802.95
30000 kPa, x2 = 0.5017 | 796.06 | 787.91 | 783.76
30000 kPa, x2 = 0.6008 | 777.85 | 769.94 | 765.87
30000 kPa, x2 = 0.7023 | 760.42 | 752.73 | 748.83
30000 kPa, x2 = 0.7977 | 745.22 | 737.68 | 733.86
30000 kPa, x2 = 0.8986 | 730.14 | 722.85 | 719
30000 kPa, x2 = 0.952 | 722.65 | 715.45 | 711.62
40000 kPa, x2 = 0.0524 | 905.09 | 896.17 | 891.7
40000 kPa, x2 = 0.1018 | 892.06 | 883.24 | 878.82
40000 kPa, x2 = 0.1968 | 868.43 | 859.99 | 855.64
40000 kPa, x2 = 0.3006 | 844.52 | 836.22 | 832.09
40000 kPa, x2 = 0.4029 | 822.78 | 814.71 | 810.61
40000 kPa, x2 = 0.5017 | 803.2 | 795.32 | 791.32
40000 kPa, x2 = 0.6008 | 784.86 | 777.21 | 773.3
40000 kPa, x2 = 0.7023 | 767.33 | 759.89 | 756.08
40000 kPa, x2 = 0.7977 | 751.95 | 744.68 | 741.01
40000 kPa, x2 = 0.8986 | 736.77 | 729.72 | 726.09
40000 kPa, x2 = 0.952 | 729.23 | 722.25 | 718.59
50000 kPa, x2 = 0.0524 | 912.23 | 903.66 | 899.36
50000 kPa, x2 = 0.1018 | 899.1 | 890.68 | 886.42
50000 kPa, x2 = 0.1968 | 875.41 | 867.25 | 863
50000 kPa, x2 = 0.3006 | 851.37 | 843.41 | 839.43
50000 kPa, x2 = 0.4029 | 829.44 | 821.7 | 817.84
50000 kPa, x2 = 0.5017 | 809.74 | 802.25 | 798.42
50000 kPa, x2 = 0.6008 | 791.3 | 784.01 | 780.24
50000 kPa, x2 = 0.7023 | 773.63 | 766.55 | 762.91
50000 kPa, x2 = 0.7977 | 758.16 | 751.26 | 747.7
50000 kPa, x2 = 0.8986 | 742.88 | 736.16 | 732.64
50000 kPa, x2 = 0.952 | 735.27 | 728.63 | 725.09
60000 kPa, x2 = 0.0524 | 918.92 | 910.6 | 906.5
60000 kPa, x2 = 0.1018 | 905.75 | 897.63 | 893.49
60000 kPa, x2 = 0.1968 | 881.9 | 874.05 | 870.05
60000 kPa, x2 = 0.3006 | 857.83 | 850.18 | 846.26
60000 kPa, x2 = 0.4029 | 835.76 | 828.39 | 824.58
60000 kPa, x2 = 0.5017 | 816 | 808.8 | 805.08
60000 kPa, x2 = 0.6008 | 797.44 | 790.44 | 786.84
60000 kPa, x2 = 0.7023 | 779.67 | 772.89 | 769.41
60000 kPa, x2 = 0.7977 | 764.09 | 757.51 | 754.11
60000 kPa, x2 = 0.8986 | 748.68 | 742.26 | 738.96
60000 kPa, x2 = 0.952 | 741.04 | 734.67 | 731.32
65000 kPa, x2 = 0.0524 | 922.13 | 913.94 | 909.89
65000 kPa, x2 = 0.1018 | 908.95 | 900.93 | 896.87
65000 kPa, x2 = 0.1968 | 885.12 | 877.31 | 873.4
65000 kPa, x2 = 0.3006 | 860.95 | 853.35 | 849.57
65000 kPa, x2 = 0.4029 | 838.88 | 831.52 | 827.86
65000 kPa, x2 = 0.5017 | 819 | 811.84 | 808.29
65000 kPa, x2 = 0.6008 | 800.38 | 793.41 | 789.99
65000 kPa, x2 = 0.7023 | 782.58 | 775.8 | 772.52
65000 kPa, x2 = 0.7977 | 766.97 | 760.33 | 757.18
65000 kPa, x2 = 0.8986 | 751.48 | 745.06 | 741.94
65000 kPa, x2 = 0.952 | 743.76 | 737.4 | 734.28
